The source of these data is patent US20020031782A1, “Mycobacterium tuberculosis CYP51 high resolution structure, polypeptides and nucleic acids, and therapeutic and screening methods relating to same” (priority 1999, published 2002).

Like-named read-outs stand apart in the source and are kept apart here.

Data set [1] deals with T1, MT P45014DM (Mycobacterium tuberculosis, UniProt P9WPP9).
T1 sequence (P9WPP9 1-451): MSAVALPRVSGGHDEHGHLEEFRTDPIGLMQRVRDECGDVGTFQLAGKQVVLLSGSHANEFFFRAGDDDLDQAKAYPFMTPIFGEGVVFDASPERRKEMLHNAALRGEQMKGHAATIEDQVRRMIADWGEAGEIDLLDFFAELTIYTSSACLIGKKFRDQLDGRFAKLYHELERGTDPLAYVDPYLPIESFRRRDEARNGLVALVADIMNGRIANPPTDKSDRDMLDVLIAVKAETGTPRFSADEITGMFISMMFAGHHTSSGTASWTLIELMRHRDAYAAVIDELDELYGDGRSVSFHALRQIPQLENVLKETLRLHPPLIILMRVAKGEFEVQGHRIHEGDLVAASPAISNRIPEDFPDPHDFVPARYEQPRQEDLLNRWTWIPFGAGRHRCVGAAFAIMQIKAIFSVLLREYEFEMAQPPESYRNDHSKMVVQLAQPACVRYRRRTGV
Kind of data set: biochemical. It is filed as binding. Set-up: DNA segments encoding full length proteins preferably have a coding length on the order of about 1353 nucleotides; made in house; host or cells: E. coli HMS174, vector pet17b. The conditions noted are these: for Kd: type I substrate-induced difference spectrum, 10 μM MT P45014DM, read-out: Ks value (binding constant), substrate.

The target in data set [2] is T1, MT P45014DM. The data set can be described thus: Reconstituted catalytic activity: sterol 14α-demethylation by MT P45014DM. It counts as biochemical. Further details: DNA segments encoding full length proteins preferably have a coding length on the order of about 1353 nucleotides; made in house; host or cells: E. coli HMS174, vector pet17b.
A further data set addresses maize microsomes. As to conditions: Salmon et al. 1992; read-out: binding constant estimated for maize microsomes; cited from earlier work.
In a further data set the test system is MT H37RA. Kind of data set: Effect of azole inhibitors on growth of MT. It is filed as cell-based, Mycobacterium tuberculosis. How it is done:
The characterization of the CYP51 enzyme of the present invention in MT leads to the analysis of the function of this enzyme in the disease tuberculosis and of whether this enzyme represents a new drug target for the treatment of tuberculosis. Particularly, the effects of three azole inhibitors on the growth of MT H37RA, an alternated strain of MTH37R which is the pathogenic strain whose genomic sequence was determined by Cole et al., (1998) Nature […]:537-544 (bacterial strains provided by Dr. Dean Crick at Colorado State University) were examined.
As contemplated by applicants in accordance with the present invention, it was observed that ketoconazole has a profound effect on the growth of MT, stopping growth at about a 25 μM concentration. […] The targeting of ketoconazole to P45014DM in MT also leads to the identification of additional specific azole inhibitors which have far greater specificity for the MT CYP45014DM enzyme as compared to the human CYP45014DM enzyme. Such inhibitors therefore will have fewer side effects than less specific inhibitors. Thus, as described above, a method of screening for highly specific inhibitors of MT CYP45014DM in accordance with the screening methods described herein above comprises another aspect of the present invention.

In data set [3] the target is T1, MT P45014DM. Kind of data set: biochemical. It counts as binding. Further details: DNA segments encoding full length proteins preferably have a coding length on the order of about 1353 nucleotides; made in house; host or cells: E. coli HMS174, vector pet17b.
Data set [4] has as its target T2, bovine 17α-hydroxylase P450 (bC17) (Bos taurus, UniProt P05185).
T2 sequence (P05185 1-509): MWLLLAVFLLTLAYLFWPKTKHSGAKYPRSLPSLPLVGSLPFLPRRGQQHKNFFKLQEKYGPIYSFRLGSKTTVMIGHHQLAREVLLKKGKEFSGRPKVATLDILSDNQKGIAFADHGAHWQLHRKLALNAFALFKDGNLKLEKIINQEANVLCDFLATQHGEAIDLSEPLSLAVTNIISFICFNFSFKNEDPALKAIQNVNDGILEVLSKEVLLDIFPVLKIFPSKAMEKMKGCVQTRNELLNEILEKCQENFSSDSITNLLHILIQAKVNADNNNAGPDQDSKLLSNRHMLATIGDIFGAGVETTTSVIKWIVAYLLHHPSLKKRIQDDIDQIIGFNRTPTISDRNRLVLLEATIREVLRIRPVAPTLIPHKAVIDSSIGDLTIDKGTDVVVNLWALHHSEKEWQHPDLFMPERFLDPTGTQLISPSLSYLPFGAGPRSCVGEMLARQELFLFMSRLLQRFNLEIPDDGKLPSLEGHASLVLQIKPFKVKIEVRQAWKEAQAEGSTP
The data set can be described thus: CO-based reduction of 17α-hydroxylase P450 by electron donors (control). It is filed as biochemical. The conditions noted are these: compared to 100% determined by sodium hydrosulfite.

The target in data set [5] is T1, MT P45014DM. The conditions noted are these: compared to 100% determined by sodium hydrosulfite.
The target of data set [6] is T3, cholesterol side chain cleavage P450 (SCC) (Bos taurus, UniProt P00189).
T3 sequence (P00189 40-520): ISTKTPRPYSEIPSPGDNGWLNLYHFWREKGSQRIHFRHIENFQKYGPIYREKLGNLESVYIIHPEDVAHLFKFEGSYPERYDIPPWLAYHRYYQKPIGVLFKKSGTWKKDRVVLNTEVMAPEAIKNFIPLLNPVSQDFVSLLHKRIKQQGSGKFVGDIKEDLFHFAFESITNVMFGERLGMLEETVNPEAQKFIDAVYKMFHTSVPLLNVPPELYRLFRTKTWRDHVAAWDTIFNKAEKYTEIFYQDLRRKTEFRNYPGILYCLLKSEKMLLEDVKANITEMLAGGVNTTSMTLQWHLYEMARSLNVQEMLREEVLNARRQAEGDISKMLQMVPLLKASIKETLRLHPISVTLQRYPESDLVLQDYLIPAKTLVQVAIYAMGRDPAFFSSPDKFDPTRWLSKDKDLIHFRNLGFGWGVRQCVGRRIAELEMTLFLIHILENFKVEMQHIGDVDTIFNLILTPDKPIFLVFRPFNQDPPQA
Kind of data set: CO-based reduction of cholesterol side chain cleavage P450 by electron donor (control). It is filed as biochemical, bovine. The conditions noted are these: compared to 100% determined by sodium hydrosulfite.

As for `C=C(CC[C@@H](C)[C@H]1CC[C@@]2(C)C3=C(CC[C@]12C)[C@@]1(C)CC[C@H](O)C(C)(C)[C@@H]1CC3)C(C)C` [24-methylene-dihydrolanosterol], the “sterol binding to the enzyme (yes/no)” value on MT P45014DM [1] is reported as “did not bind”.
Regarding `CC(C)CCC[C@@H](C)[C@H]1CC[C@@]2(C)C3=C(CC[C@]12C)[C@@]1(C)CC[C@H](O)C(C)(C)[C@@H]1CC3` [DHL, 24,25-dihydrolanosterol], at MT P45014DM [1], the “sterol binding to the enzyme (yes/no)” value was “binds” and the Kd was ~1000 nM. At MT P45014DM [2], the “Total product recovered from the quenched reaction mixtures” value (from here on “Total product recovered”) stood at 20%.
For `CC(C)=CCC[C@@H](C)[C@H]1CC[C@@]2(C)[C@@H]3CC[C@H]4C(C)(C)[C@@H](O)CC[C@@]45C[C@@]35CC[C@]12C` [cycloartenol], the “sterol binding to the enzyme (yes/no)” value at MT P45014DM [1] is reported as “Neither parkeol, cycloartenol, nor zymosterol (FIG. 3A) were found to bind”.
With `CC(=O)N1CCN(c2ccc(OCC3COC(Cn4ccnc4)(c4ccc(Cl)cc4Cl)O3)cc2)CC1` (stereo not shown) [ketoconazole], the “inhibition of the 14α-demethylation of DHL” value at MT P45014DM [2] is “inhibit”. For the same molecule, the Kd is 10000 nM on maize microsomes and ~5000 nM at MT P45014DM [3]. Also, the “concentration stopping growth of MT” value in the data set on MT H37RA is ~25 µM.
For `CC(C)=CCC[C@@H](C)[C@H]1CC[C@@]2(C)C3=C(CC[C@]12C)[C@@]1(C)CC[C@H](O)C(C)(C)[C@@H]1CC3` [lanosterol], on MT P45014DM [1], the “sterol binding to the enzyme (yes/no)” value is given as “binds” and the Kd was ~1000 nM. For the same molecule, the “Total product recovered” value on MT P45014DM [2] stood at 1%.
In the case of `C=C(CC[C@@H](C)[C@H]1CC[C@@]2(C)C3=C(CC[C@]12C)[C@@]1(C)CC[C@H](O)[C@@H](C)[C@@H]1CC3)C(C)C` [obtusifoliol], on MT P45014DM [1], the “sterol binding to the enzyme (yes/no)” value was “binds” and the Kd was determined as 350 ± 150 nM. For the same molecule, the “Total product recovered” value at MT P45014DM [2] worked out at 98%.
In the case of `CC(C)=CCC[C@@H](C)[C@H]1CC[C@@]2(C)[C@@H]3CC[C@H]4C(C)(C)[C@@H](O)CC[C@]4(C)C3=CC[C@]12C` [parkeol], the “sterol binding to the enzyme (yes/no)” value at MT P45014DM [1] is given as “Neither parkeol, cycloartenol, nor zymosterol (FIG. 3A) were found to bind”.
The same measure, in the same setting: the entry for `CC(C)=CCC[C@@H](C)[C@H]1CC[C@H]2C3=C(CC[C@]12C)[C@@]1(C)CC[C@H](O)C[C@@H]1CC3` [zymosterol, 4,4,14-tridesmethyl lanosterol] is “Neither parkeol, cycloartenol, nor zymosterol (FIG. 3A) were found to bind”.

B1: Fld/Fdr: E. coli flavodoxin/flavodoxin reductase two-component electron donor system (protein, UniProt P61949 2-176; P28861 2-248, looked up)
Flavodoxin 1: AITGIFFGSDTGNTENIAKMIQKQLGKDVADVHDIAKSSKEDLEAYDILLLGIPTWYYGEAQCDWDDFFPTLEEIDFNGKLVALFGCGDQEDYAEYFCDALGTIRDIIEPRGATIVGHWPTAGYHFEASKGLADDDHFVGLAIDEDRQPELTAERVEKWVKQISEELHLDEILNA
Flavodoxin/ferredoxin--NADP …: ADWVTGKVTKVQNWTDALFSLTVHAPVLPFTAGQFTKLGLEIDGERVQRAYSYVNSPDNPDLEFYLVTVPDGKLSPRLAALKPGDEVQVVSEAAGFFVLDEVPHCETLWMLATGTAIGPYLSILQLGKDLDRFKNLVLVHAARYAADLSYLPLMQELEKRYEGKLRIQTVVSRETAAGSLTGRIPALIESGELESTIGLPMNKETSHVMLCGNPQMVRDTQQLLKETRQMTKHLRRRPGHMTAEHYW
B1: the “reduction of bC17 (reduced-CO spectrum)” value in data set [4] was found to be 77%.

B2: rat P450 reductase: rat microsomal NADPH cytochrome P450 reductase (protein, UniProt P00388 2-678, looked up)
NADPH--cytochrome P450 …: GDSHEDTSATMPEAVAEEVSLFSTTDMVLFSLIVGVLTYWFIFRKKKEEIPEFSKIQTTAPPVKESSFVEKMKKTGRNIIVFYGSQTGTAEEFANRLSKDAHRYGMRGMSADPEEYDLADLSSLPEIDKSLVVFCMATYGEGDPTDNAQDFYDWLQETDVDLTGVKFAVFGLGNKTYEHFNAMGKYVDQRLEQLGAQRIFELGLGDDDGNLEEDFITWREQFWPAVCEFFGVEATGEESSIRQYELVVHEDMDVAKVYTGEMGRLKSYENQKPPFDAKNPFLAAVTANRKLNQGTERHLMHLELDISDSKIRYESGDHVAVYPANDSALVNQIGEILGADLDVIMSLNNLDEESNKKHPFPCPTTYRTALTYYLDITNPPRTNVLYELAQYASEPSEQEHLHKMASSSGEGKELYLSWVVEARRHILAILQDYPSLRPPIDHLCELLPRLQARYYSIASSSKVHPNSVHICAVAVEYEAKSGRVNKGVATSWLRAKEPAGENGGRALVPMFVRKSQFRLPFKSTTPVIMVGPGTGIAPFMGFIQERAWLREQGKEVGETLLYYGCRRSDEDYLYREELARFHKDGALTQLNVAFSREQAHKVYVQHLLKRDREHLWKLIHEGGAHIYVCGDARNMAKDVQNTFYDIVAEFGPMEHTQAVDYVKKLMTKGRYSLDVWS
As to B2, in the data set with MT P45014DM [5], the “reduction of MT P45014DM (reduced-CO spectrum)” value is listed as “n.r”. In data set [4], the “reduction of bC17 (reduced-CO spectrum)” value was found to be 73%.

B3: Adx/Adr: bovine adrenodoxin/adrenodoxin reductase electron donor system (protein, UniProt P00257 59-186; P08165 33-492, looked up)
Adrenodoxin, mitochondrial: SSSEDKITVHFINRDGETLTTKGKIGDSLLDVVVQNNLDIDGFGACEGTLACSTCHLIFEQHIFEKLEAITDEENDMLDLAYGLTDRSRLGCQICLTKAMDNMTVRVPDAVSDARESIDMGMNSSKIE
NADPH:adrenodoxin …: STQEQTPQICVVGSGPAGFYTAQHLLKHHSRAHVDIYEKQLVPFGLVRFGVAPDHPEVKNVINTFTQTARSDRCAFYGNVEVGRDVTVQELQDAYHAVVLSYGAEDHQALDIPGEELPGVFSARAFVGWYNGLPENRELAPDLSCDTAVILGQGNVALDVARILLTPPDHLEKTDITEAALGALRQSRVKTVWIVGRRGPLQVAFTIKELREMIQLPGTRPMLDPADFLGLQDRIKEAARPRKRLMELLLRTATEKPGVEEAARRASASRAWGLRFFRSPQQVLPSPDGRRAAGIRLAVTRLEGIGEATRAVPTGDVEDLPCGLVLSSIGYKSRPIDPSVPFDPKLGVVPNMEGRVVDVPGLYCSGWVKRGPTGVITTTMTDSFLTGQILLQDLKAGHLPSGPRPGSAFIKALLDSRGVWPVSFSDWEKLDAEEVSRGQASGKPREKLLDPQEMLRLLGH
modifications: two-protein electron donor system
Consider B3, for which the “reduction of SCC (reduced-CO spectrum)” value in data set [6] is listed as 80%. The “reduction of MT P45014DM (reduced-CO spectrum)” value in the data set with MT P45014DM [5] is given as “n.r”.
